Values quoted from earlier work as cited in patent publication US8614057B2, “Methods for collecting and detecting oligonucleotides” (The Invention Science Fund I, LLC, priority 2008, dated 2013).
Like-named read-outs stand apart in the source and are kept apart here.

Columns and labels:
[1] = subcutaneous; 40, 8, and 1.6 μg injections once daily over 35 days
[2] = molecular target: RNase-2 (eosinophil derived neurotoxin) (Homo sapiens, UniProt P10153)
RNAse A [3] = molecular target: T1, RNAse A (Bos taurus, UniProt P61823)
T1 sequence (P61823 27-150): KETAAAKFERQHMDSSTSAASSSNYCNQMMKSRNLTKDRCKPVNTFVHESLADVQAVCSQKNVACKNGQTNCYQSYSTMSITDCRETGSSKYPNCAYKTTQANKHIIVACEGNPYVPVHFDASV

RNase-4 = molecular target: T2, RNase-4 (Homo sapiens, UniProt P34096)
T2 sequence (P34096 29-147): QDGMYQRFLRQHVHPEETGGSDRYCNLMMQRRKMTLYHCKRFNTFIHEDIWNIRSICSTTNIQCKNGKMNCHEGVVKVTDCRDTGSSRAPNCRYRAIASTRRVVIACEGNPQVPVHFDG

[4] = in humans
RNAse A [5] = molecular target: T1, RNAse A; conditions: RNAse A catalysis

Sequence of RNase-2 (eosinophil derived neurotoxin) (P10153 28-161): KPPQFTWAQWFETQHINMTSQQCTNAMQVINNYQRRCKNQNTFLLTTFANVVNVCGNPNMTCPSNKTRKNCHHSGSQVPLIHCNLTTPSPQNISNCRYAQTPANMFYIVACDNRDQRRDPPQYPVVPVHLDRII

Question: Which “toxicity to the animals” value [1] does the source give for `Nc1ccc(N=Nc2ccc(-c3ccc(O)cc3)cc2)c2ccc(S(=O)(=O)O)cc12` [8-amino-5-(4′-hydroxylbiphenyl-4-ylazo)naphthalene-2-sulfonate] here?
Answer: The value was “without overt toxicity”.

Question: For `Nc1ncnc2c1ncn2C1OC(COP(=O)(O)OP(=O)(O)OC2CC(n3ccc(=O)[nH]c3=O)OC2COP(=O)(O)O)C(OP(=O)(O)O)C1O` (centres unmarked) [pdUppAp, 5′-phosphor-2′-deoxyuridine 3′-pyrophosphate, P′-P5-ester with adenosine 3′-phosphate], which “inhibition of RNase-2 activity” value [2] is on record?
Answer: Its value is “inhibits the activity”.

Question: And the Ki (RNAse A [3]; pH 5.9)?
Answer: The Ki was 27 nM.

Question: What about the Ki (RNAse A [3]; pH 7.0) of the same molecule?
Answer: Its Ki is 240 nM.

Question: And the “inhibition of RNase-4 activity” value (RNase-4)?
Answer: Its value is “inhibits the activity”.

Question: For Etanercept, which half-life [4] is on record?
Answer: Its half-life is 70 h.

Question: What does the source list for oligo(vinylsulfonic acid)?
Answer: Ki (RNAse A [5]; 0 mM sodium chloride end of the range 0 to 100 mM, read-out: inhibition constant (Ki), lower end of reported range): ~0.01 nM; Ki (RNAse A [5]; 100 mM sodium chloride end of the range 0 to 100 mM, read-out: inhibition constant (Ki), upper end of reported range): ~120 nM
